{"source": "paper PMC11859980", "about": "“Tailored Intranasal Albumin Caged Selegiline-α Synuclein siRNA Liposome with Improved Efficiency in Parkinson’s Model” (Pharmaceutics, 2025)", "key": {"Parkinson's model rats [1]": {"test_system": "Parkinson's model rats", "assay": "Paw placement and coverage, rotenone-induced PD rat model", "format": "in vivo", "details": "day 30", "method": "(§1) PD was simulated in rats by IP injection of rotenone (3 mg/kg/day) for 11 days. […] On day 30 of the experiment, stride length was recorded based on the spatial distance a paw travels during a stride. Animal forepaws were dipped in black non-toxic ink. The length of forelimb and hindlimb steps in the left and right limbs were measured while walking on a clean piece of paper. Stride length was defined as the distance between each step on the same side of the animal’s body, measured from the mid-digit toe of the first step to the heel of the second.\nOn day 30, the distance between the location of the behind paw and the previously placed contralateral front paw was measured during the same step cycle while the area covered when the forelimbs or hindlimbs perform a stride was recorded as the coverage area."}, "Parkinson's model rats [2]": {"test_system": "Parkinson's model rats", "assay": "Catalepsy test (bar method), rotenone-induced PD rat model", "format": "in vivo", "details": "scale 0 to 5", "method": "as §1\nThe catalepsy score was determined using the bar method, which involved measuring the time that rat consumed to remove its forepaws from the rod. The rats were rated on a five-point scale: 0 (0–5 s), 1 (6–15 s), 2 (16–25 s), 3 (26–35 s), 4 (36–60 s), and 5 (>60 s). The rat’s forepaws were gently put on a steel rod positioned 10 cm above the bench. The recording begins when cataleptic animals have been held in this position for at least 30 s (the adapting time)."}, "MAO-B": {"test_system": "MAO-B", "format": "in vivo, rats", "details": "rotenone 3 mg/kg/day IP 11 days; treatment days 12 and 20; day 30; ELISA"}, "dopamine": {"test_system": "dopamine", "format": "in vivo, rats", "method": "as §1\n(§2) On day 30 of the experiment, rats were scarified and brain tissues were collected. Brain tissues were homogenized as previously described and the concentration of dopamine in the brain homogenate was assessed by HPLC-equipped with a fluorescence detector set at excitation/emission wavelengths of 280/315 nm as described elsewhere. Catalase activity in brain homogenate was measured using colorimetric assay at 570 nm using hydrogen peroxide."}, "catalase": {"test_system": "catalase", "format": "in vivo, rats", "method": "as §1, §2"}, "Parkinson's model rats [3]": {"test_system": "Parkinson's model rats", "assay": "Stride length measurement, rotenone-induced PD rat model", "format": "in vivo", "details": "day 30", "method": "as §1"}, "Parkinson's model rats [4]": {"test_system": "Parkinson's model rats", "assay": "Open field test, rotenone-induced PD rat model", "format": "in vivo", "details": "60-minute observation", "method": "as §1\nAn open-field device with 16 sub-squares (40 × 40 × 30 cm; Accuscan Instruments, Columbus, OH, USA) was utilized to examine forelimb and hindlimb locomotor impairments in rats following 30 days of PD induction. Prior to the test, each rat was left in its home cage in the testing area for 2 h before being gently carried by the base of its tail to the center of the open field arena. The animal behavior was then studied for 60 min. To measure the rat’s ambulatory distance, the total number of squares crossed was recorded. Additionally, one of the non-motor characteristics of PD that has been investigated is anxiety, which is indexed by the preference exploration of the open field’s periphery. The number of individuals crossing the center zone was noted."}, "[5]": {"assay": "In vivo pharmacokinetic study of Sel in plasma and brain", "details": "for AUC(0-t): AUC0–480min; for AUC(0-inf): AUC0–∞; for k el: Kel", "method": "All animal experiments were conducted in compliance with the guidelines of the ethical committee, Faculty of Pharmacy, University of Sadat City (approval number RERC-FOP-USC-24-02-08). Adult male albino rats (200 g ± 10%) were randomly divided into two groups each of 48 animals. Animals were subjected to anesthesia using sodium thiopental via intraperitoneal injection (IP). […] At each time point, blood samples were collected from 6 animals by cardiac puncture on heparinized tube and then animals were sacrificed. Blood samples were centrifuged at 9000 rpm and the obtained plasma was stored at −80 °C until analysis. The whole brain was isolated, washed with saline, and homogenized at 10,000 rpm in ice-cold PBS (pH 7.4) for 5 min. The homogenate obtained was centrifuged at 9000 rpm for 15 min. Sel concentration in plasma and brain was quantified using LCMS/MS [49, 50]. The maximum drug concentration (Cmax), time required to achieve Cmax (Tmax), area under the concentration-time curve (AUC0–480min and AUC0–∞), mean residence time (MRT), and elimination rate constant (Kel) in both plasma and brain were calculated. All pharmacokinetics data were calculated using the pharmacokinetic software PK Solver-Add Ins for Microsoft Excel 2007. Additionally, absolute bioavailability as well as the Direct-Transport Percentage (DTP%) and Drug-Targeting Efficiency percentage (DTE%) were calculated using the following equations [51]:DTE = (AUCbrain/AUCplasma) IN/(AUCbrain/AUCplasma) IV × 100(2) DTP% = BIN − BX/BIN × 100(3) where BX = BIV/PIV × PIN\nBX is the brain AUC0–480min fraction contributed by systemic circulation, following IN administration; BIV is the brain AUC0–480min following IV administration; PIV is the plasma AUC0–480min following IV administration; BIN is the brain AUC0–480min following IN administration; PIN is the plasma AUC0–480min following IN administration."}, "[6]": {"details": "rotenone 3 mg/kg/day IP 11 days, treatment days 12 and 20, day 30, mean ± SE (n = 6)"}, "[7]": {"details": "male, albino, rat, in vivo, iv, 1 mg/kg"}, "[8]": {"details": "male, albino, rat, in vivo, iv, 1 mg/kg, brain, rat brain, Sel 1 mg/kg, route as in label"}, "[9]": {"details": "male, albino, rat, in vivo, iv, 1 mg/kg, plasma, rat plasma, Sel 1 mg/kg, route as in label"}}, "note": "Like-named read-outs stand apart in the source and are kept apart here."}
{"smiles": "C=C(C)[C@H]1Cc2c(ccc3c2O[C@@H]2COc4cc(OC)c(OC)cc4[C@@H]2C3=O)O1", "note": "[rotenone]", "values": [{"measurement": "Paw placement, left side", "setting": "Parkinson's model rats [1]", "result": "24.66 ± 2.02", "unit": "mm"}, {"measurement": "Paw placement, right side", "setting": "Parkinson's model rats [1]", "result": "30.33 ± 2.95", "unit": "mm"}, {"measurement": "Catalepsy score", "setting": "Parkinson's model rats [2]", "result": "4.78 ± 0.17"}, {"measurement": "MAO-B level in brain tissue", "setting": "MAO-B", "result": "256.33 ± 25.6", "unit": "ng/g"}, {"measurement": "Dopamine concentration in brain tissue", "setting": "dopamine; [6]", "result": "49.66 ± 3.23", "unit": "ng/g"}, {"measurement": "Catalase activity in brain tissue", "setting": "catalase; [6]", "result": "12 ± 0.85", "unit": "U/mg protein"}, {"measurement": "Stride length, left forelimb", "setting": "Parkinson's model rats [3]", "result": "102 ± 4.2", "unit": "mm"}, {"measurement": "Number of center crossings", "setting": "Parkinson's model rats [4]", "result": "3.00 ± 1.91"}]}
{"smiles": "C#CCN(C)[C@H](C)Cc1ccccc1", "note": "[IV Sel solution, Selegiline]", "values": [{"measurement": "Paw placement, left side", "setting": "Parkinson's model rats [1]", "result": "12 ± 0.57", "unit": "mm"}, {"measurement": "Paw placement, right side", "setting": "Parkinson's model rats [1]", "result": "11.66 ± 1.05", "unit": "mm"}, {"measurement": "Catalepsy score", "setting": "Parkinson's model rats [2]", "result": "2.11 ± 0.11"}, {"measurement": "Dopamine concentration in brain tissue", "setting": "dopamine; rat, in vivo", "result": "125.33 ± 3.71", "unit": "ng/g"}, {"measurement": "Catalase activity in brain tissue", "setting": "catalase; rat, in vivo", "result": "24 ± 0.82", "unit": "U/mg protein"}, {"measurement": "Tmax", "setting": "[5]; [7]", "result": 0.5, "unit": "h"}, {"measurement": "bioavailability", "setting": "[5]; [7]", "result": 100, "unit": "%"}, {"measurement": "AUC(0-t)", "setting": "[5]; [8]", "result": "850 ± 60", "unit": "ng·h/mL"}, {"measurement": "AUC(0-t)", "setting": "[5]; [9]", "result": "1160 ± 90", "unit": "ng·h/mL"}, {"measurement": "AUC(0-inf)", "setting": "[5]; [8]", "result": "1220 ± 150", "unit": "ng·h/mL"}, {"measurement": "AUC(0-inf)", "setting": "[5]; [9]", "result": "1540 ± 210", "unit": "ng·h/mL"}, {"measurement": "k el", "setting": "[5]; [8]", "result": "4.44e-05", "unit": "s⁻¹"}, {"measurement": "k el", "setting": "[5]; [9]", "result": "4.72e-05", "unit": "s⁻¹"}, {"measurement": "MRT", "setting": "[5]; [8]", "result": "4.56 ± 0.75", "unit": "h"}, {"measurement": "MRT", "setting": "[5]; [9]", "result": "4.22 ± 0.84", "unit": "h"}, {"measurement": "Cmax, brain", "setting": "[5]; rat brain, Sel 1 mg/kg, route as in label", "result": "210 ± 30", "unit": "ng/mL"}, {"measurement": "Stride length, left forelimb", "setting": "Parkinson's model rats [3]", "result": "119.5 ± 2.66", "unit": "mm"}, {"measurement": "Number of center crossings", "setting": "Parkinson's model rats [4]", "result": "8.33 ± 1.49"}]}
